According to patent US9365522B2, “Pyrazole amide derivative” (AMGEN INC., priority 2015, dated 2016):

Biological target: T1, ligand binding domain of human ROR gamma (Homo sapiens, UniProt P51449)
T1 construct: NM_001001523; expressed in transfected cells; host or cells: HEK293T
T1 sequence (P51449 247-497 isoform P51449-2): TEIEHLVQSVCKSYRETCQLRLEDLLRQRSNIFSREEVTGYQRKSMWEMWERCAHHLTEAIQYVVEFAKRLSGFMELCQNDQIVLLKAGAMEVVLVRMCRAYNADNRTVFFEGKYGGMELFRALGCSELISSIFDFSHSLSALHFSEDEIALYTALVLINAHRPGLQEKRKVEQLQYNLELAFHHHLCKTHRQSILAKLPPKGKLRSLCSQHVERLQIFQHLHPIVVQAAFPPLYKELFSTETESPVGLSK
Experiment: ROR gamma reporter gene assay (GAL4-RORγ LBD luciferase, Dual-Glo)
Format: cell-based
Details: HEK293T cells transfected with pM-ROR gamma, 8 concentrations 3.5 nM to 10.5 μM, 24 h incubation; read-out: result (pIC50, inhibition of RORγ transcriptional activity) (converted)
In short: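 HEK293T cells were co-transfected with GAL4 DBD fused to human RORγ LBD (aa 247-497), a 5×UAS firefly luciferase reporter and CMV-driven renilla luciferase, in medium with 10% charcoal-stripped FBS.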

Structure (SMILES) | IC50
CC(C)(C)O[C@H]1C[C@@H](N(CC(=O)c2c(Cl)cncc2Cl)C(=O)c2cnn([C@H]3CC[C@H](C(=O)O)CC3)c2C(F)(F)F)C1 [Example 155, trans-4-(4-((2-(3,5-dichloropyridin-4-yl)-2-oxoethyl)-(3-((2-methylpropan-2-yl)oxy)cyclobutyl)carbamoyl)-5-(trifluoromethyl)pyrazol-1-yl)cyclohexane-1-carboxylic acid] | 5.13e+06 pM
O=C(CN(Cc1cc(F)cc(F)c1)C(=O)c1cnn([C@H]2CC[C@H](C(=O)O)CC2)c1C(F)(F)F)c1c(Cl)cc(C(F)F)cc1Cl [Example 18, trans-4-(4-((2-(2,6-dichloro-4-(difluoromethyl)phenyl)-2-oxoethyl)(3,5-difluorobenzyl)carbamoyl)-5-(trifluoromethyl)-1H-pyrazol-1-yl)cyclohexanecarboxylic acid] | 11700 pM
CC1(C)CCC(N(CC(=O)c2c(Cl)cc(F)cc2Cl)C(=O)c2cnn([C@H]3CC[C@](C)(C(=O)O)CC3)c2C(F)(F)F)CC1 [Example 190, trans-4-(4-((2-(2,6-dichloro-4-fluorophenyl)-2-oxoethyl)-(4,4-dimethylcyclohexyl)carbamoyl)-5-(trifluoromethyl)pyrazol-1-yl)-1-methylcyclohexane-1-carboxylic acid] | 8320 pM
O=C(CN(CC1CCCCN1)C(=O)c1cnn([C@H]2CC[C@H](C(=O)O)CC2)c1C(F)(F)F)c1c(Cl)cncc1Cl (stereo partly drawn) [Example 121, trans-4-(4-((2-(3,5-dichloropyridin-4-yl)-2-oxoethyl)-(piperidin-2-ylmethyl)carbamoyl)-5-(trifluoromethyl)pyrazol-1-yl)cyclohexane-1-carboxylic acid] | > 1e+07 pM
O=C(CN(Cc1ccc(F)cc1)C(=O)c1cnn([C@H]2C[C@H](C(=O)O)C2)c1C(F)(F)F)c1c(Cl)cncc1Cl [Example 82, trans-3-(4-((2-(3,5-dichloropyridin-4-yl)-2-oxoethyl)(4-fluorobenzyl)carbarnoyl)-5-(trifluoromethyl)-1H-pyrazol-1-yl)cyclobutanecarboxylic acid] | 81300 pM
O=C(CN(Cc1ccc(F)c(F)c1)C(=O)c1cnn([C@H]2CC[C@H](C(=O)O)CC2)c1C(F)(F)F)c1c(Cl)cncc1Cl [Example 44, trans-4-(4-((2-(3,5-dichloropyridin-4-yl)-2-oxoethyl)(3,4-difluorobenzyl)carbamoyl)-5-(trifluorornethyl)-1H-pyrazol-1-yl)cyclohexanecarboxylic acid] | 14800 pM
O=C(CN(Cc1cc(F)cc(F)c1)C(=O)c1cnn([C@H]2CC[C@H](C(=O)O)CC2)c1C(F)(F)F)c1ncc(C(F)(F)F)cc1Cl [Example 152, trans-4-(4-((2-(3-chloro-5-(trifluoromethyl)pyridin-2-yl)-2-oxoethyl)-((3,5-difluorophenyl)methyl)carbamoyl)-5-(trifluoromethyl)pyrazol-1-yl)cyclohexane-1-carboxylic acid] | 2.82e+06 pM
O=C(CN(C[C@H]1CCOC1)C(=O)c1cnn([C@H]2CC[C@H](C(=O)O)CC2)c1C(F)(F)F)c1c(Cl)cncc1Cl [Example 39, trans-4-(4-((2-(3,5-dichloropyridin-4-yl)-2-oxoethyl)(((R)-tetrahydrofuran-3-yl)methyl)carbamoyl)-5-(trifluoromethyl)-1H-pyrazol-1-yl)cyclohexanecarboxylic acid] | > 1e+07 pM
Nc1ccccc1C(=O)CN(Cc1cc(F)cc(F)c1)C(=O)c1cnn([C@H]2CC[C@H](C(=O)O)CC2)c1C(F)(F)F [Example 142, trans-4-(4-((2-(2-aminophenyl)-2-oxoethyl)-((3,5-difluorophenyl)methyl)carbamoyl)-5-(trifluoromethyl)pyrazol-1-yl)cyclohexane-1-carboxylic acid] | 6.61e+06 pM
O=C(CN(Cc1cc(F)cc(F)c1)C(=O)c1cnn([C@H]2CC[C@H](C(=O)O)CC2)c1C(F)(F)F)c1c(Cl)cccc1Cl [Example 53, trans-4-(4-((2-(2,6-dichlorophenyl)-2-oxoethyl)(3,5-difluorobenzyl)carbamoyl)-5-(trifluoromethyl)-1H-pyrazol-1-yl)cyclohexanecarboxylic acid] | 16200 pM
C[C@]1(C(=O)O)CC[C@H](n2ncc(C(=O)N(CC(=O)c3c(Cl)cc(Cl)cc3Cl)CC3CC4(CC4)C3)c2C(F)(F)F)CC1 [Example 234, trans-4-(4-((2-oxo-2-(2,4,6-trichlorophenyl)ethyl)-(spiro[2.3]hexan-5-ylmethyl)carbamoyl)-5-(trifluoromethyl)pyrazol-1-yl)-1-methylcyclohexane-1-carboxylic acid] | 10000 pM
CC12CCC(CN(CC(=O)c3c(Cl)cncc3Cl)C(=O)c3cnn([C@H]4CC[C@H](C(=O)O)CC4)c3C(F)(F)F)(CC1)C2 [Example 192, trans-4-(4-((2-(3,5-dichloropyridin-4-yl)-2-oxoethyl)-((1-methyl-4-bicyclo[2.2.1]heptanyl)methyl)carbamoyl)-5-(trifluoromethyl)pyrazol-1-yl)cyclohexane-1-carboxylic acid] | 11700 pM

Next, values leading:

IC50 | Structure (SMILES)
10700 pM | CC1(C)C(CN(CC(=O)c2c(Cl)cncc2Cl)C(=O)c2cnn([C@H]3CC[C@](C)(C(=O)O)CC3)c2C(F)(F)F)C1(C)C [Example 325, trans-4-(4-((2-(3,5-dichloropyridin-4-yl)-2-oxoethyl)-((2,2,3,3-tetramethylcyclopropyl)methyl)carbamoyl)-5-(trifluoromethyl)pyrazol-1-yl)-1-methylcyclohexane-1-carboxylic acid]
6030 pM | CC1(C)CC(CN(CC(=O)c2c(Cl)cccc2C(F)(F)F)C(=O)c2cnn([C@H]3CC[C@](C)(C(=O)O)CC3)c2C(F)(F)F)C1 [Example 251, trans-4-(4-((2-(2-chloro-6-(trifluoromethyl)phenyl)-2-oxoethyl)-((3,3-dimethylcyclobutyl)methyl)carbamoyl)-5-(trifluoromethyl)pyrazol-1-yl)-1-methylcyclohexane-1-carboxylic acid]
4270 pM | C[C@]1(C(=O)O)CC[C@H](n2ncc(C(=O)N(CC(=O)c3c(Cl)cccc3Cl)CC3(F)CCCC3)c2C(F)(F)F)CC1 [Example 281, trans-4-(4-((2-(2,6-dichlorophenyl)-2-oxoethyl)-((1-fluorocyclopentyl)methyl)carbamoyl)-5-(trifluoromethyl)pyrazol-1-yl)-1-methylcyclohexane-1-carboxylic acid]
347000 pM | CC1(C)[C@@H]2C[C@H](N(C[C@@H](O)c3c(F)cncc3Cl)C(=O)c3cnn([C@H]4CC[C@](C)(C(=O)O)CC4)c3C(F)(F)F)C[C@@H]21 [Example 384, trans-4-(4-((2-(3-chloro-5-fluoropyridin-4-yl)-2-hydroxyethyl)((1R,3r,5S)-6,6-dimethylbicyclo[3.1.0]hexan-3-yl)carbamoyl)-5-(trifluoromethyl)-1H-pyrazol-1-yl)-1-methylcyclohexanecarboxylic acid]
9120 pM | CC1(CN(CC(=O)c2c(Cl)cncc2Cl)C(=O)c2cnn(C34CCC(C(=O)O)(CC3)CC4)c2C(F)(F)F)CC1 [Example 316, 4-(4-((2-(3,5-dichioropyridin-4-yl)-2-oxoethyl)-((1-methylcyclopropyl)methyl)carbamoyl)-5-(trifluoromethyl)pyrazol-1-yl)bicyclo[2.2.2]octane-1-carboxylic acid]
24000 pM | Cc1cc(Cl)c(C(=O)CN(CC2(F)CCCC2)C(=O)c2cnn(C34CCC(C(=O)O)(CC3)CC4)c2C(F)(F)F)c(Cl)c1 [Example 300, 4-(4-((2-(2,6-dichloro-4-methyIphenyl)-2-oxoethyl)-((1-fluorocyclopentyl)methyl)carbamoyl)-5-(trifluoromethyl)pyrazol-1-yl)bicyclo[2.2.2]octane-1-carboxylic acid]
14100 pM | CC1(C)CCC(N(CC(=O)c2c(Cl)cc(F)cc2Cl)C(=O)c2cnn(C34CCC(C(=O)O)(CC3)CC4)c2C(F)F)CC1 [Example 273, 4-(4-((2-(2,6-dichloro-4-fluorophenyl)-2-oxoethyl)-(4,4-dimethylcyclohexyl)carbamoyl)-5-(difluoromethyl)pyrazol-1-yl)bicyclo[2.2.2]octane-1-carboxylic acid]
6610 pM | CC1(C)CC(CN(CC(=O)c2c(Cl)cccc2C(F)(F)F)C(=O)c2cnn(C34CCC(C(=O)O)(CC3)CC4)c2C(F)(F)F)C1 [Example 258, 4-(4-((2-(2-chloro-6-(trifluoromethyl)phenyl)-2-oxoethyl)-((3,3-dimethylcyclobutyl)methyl)carbamoyl)-5-(trifluoromethyl)pyrazol-1-yl)bicyclo[2.2.2]octane-1-carboxylic acid]
141000 pM | CC1(C)[C@@H]2C[C@H](N(C[C@@H](O)c3ncccc3Cl)C(=O)c3cnn([C@H]4CC[C@](C)(C(=O)O)CC4)c3C(F)(F)F)C[C@@H]21 [Example 391, trans-4-(4-((2-(3-chloropyridin-2-yl)-2-hydroxyethyl)((1R,3r,5S)-6,6-dimethylbicyclo[3.1.0]hexan-3-yl)carbamoyl)-5-(trifluoromethyl)-1H-pyrazol-1-yl)-1-methylcyclohexanecarboxylic acid]
61700 pM | CC(C)(C)CN(CC(=O)c1c(Cl)cccc1Cl)C(=O)c1cnn([C@H]2CC[C@](C)(C(=O)O)CC2)c1Cl [Example 358, trans-4-(5-chloro-4-((2-(2,6-dichlorophenyl)-2-oxoethyl)-(2,2-dimethylpropyl)carbamoyl)pyrazol-1-yl)-1-methylcyclohexane-1-carboxylic acid]
